Measured values from patent publication US7276532B2, “Remedies for vesical hyperactivity” (Kyowa Hakko Kogyo Co., Ltd., priority 2001, dated 2007).

How the values were obtained:
[1] = test system: dd male mice; assay: Acute toxicity test; assay type: in vivo; details: oral administration, mortality on the seventh day after administration
Procedure: The test compound was administered orally or intraperitoneally to 3 animals per group of dd male mice (body weight: 20±1 g). The minimum lethal dose (MLD) value was obtained by observing mortality on the seventh day after the administration calculated.

[2] = test system: rats with bladder hypertrophy; assay: Inhibitory activity on detrusor instability (cystometry test after partial urethral obstruction); assay type: in vivo, rat; details: average ± standard error
Procedure: The experiment was carried out according to the method of Malmgren, et al. [J. Urol., Vol. 142, pp. 1134-1138 (1989)].
Female SD rats of 8 to 10 weeks of age (supplied by Japan SLC) were used in the test. Five to seven animals of these rats were put in each metal cage and reared by allowing them to freely take commercially available chow and water, in an animal room at room temperature between 19 and 25° C. and humidity between 30 and 70% under illumination for 12 hours (7:00 a.m.-7:00 p.m.) per day.
The rats were subjected to operation of partial urethral obstruction. Each animal was anesthetized by intraperitoneal administration of 50 mg/kg pentobarbital sodium (Dainippon Pharmaceutical Co., Ltd.), and the midline incision of the skin and muscle was made in the lower abdomen. A polyethylene tube (PE-20, Nippon Becton Dickinson Co., Ltd.) was inserted into urethra from the urethral to the bladder neck. After the proximal urethra was peeled and double-ligated, the polyethylene tube was pulled out to cause partial urethral obstruction. The incised part was-sutured with a surgical silk thread. An antibiotic (ampicillin, Sigma Chemical Co.) was intramusclarly administered to the animals at a dose of 150 mg/kg.
Six weeks after the operation of the partial urethral obstruction, the rats with bladder hypertrophy were subjected to bladder catheterization. Under anesthesia with pentobarbital sodium, the bladder was exposed by midline incision of the abdomen. […] The bladder catheter was fixed with a surgical silk ligature and indwelled. The other end of the catheter was exposed subcutaneously from the back of the neck, plugged and then fixed to the skin with a surgical thread.
Four to six days after the bladder catheterization, a cystometry test was performed. The rats were put in a Bollman cage (Natsume Seisakusho Co., Ltd.) and a three-way cock was connected to the bladder catheter, one end of the cock was connected to a pressure transducer (Nihon Kohden Corp.) and the other end was connected to a 50-mL syringe (Terumo Corp.) arranged to an infusion pump (Harvard Apparatus, Inc.) for physiological saline infusion. The intravesical pressure signal from the pressure transducer was amplified with a strain pressure amplifier (AP-601G, Nihon Kohden Corp.) connected thereto, and was recorded on a thermal array recorder (RTA-1200, Nihon Kohden Corp.) via a polygraph system (RMP-6008, Nihon Kohden Corp.) containing the above amplifier. Sixty to ninety minutes after the completion of the preparation for the measurement, intravesical infusion of a room temperature physiological saline at a flow rate of 10 mL/h was started and continued until the completion of the test, and the occurrence of micturition contractions and pre-micturition contractions were confirmed. The chart for 30 minutes after 3 hours from the commencement of the saline infusion was used as the values before the drug administration. Each of Compounds 1 to 3 was suspended in a 0.5 w/v % aqueous solution of methylcellulose at a concentration of 1 mg/mL. The suspension was further diluted with a 0.5 w/v % aqueous solution of methylcellulose to prepare a suspension or solution for the administration at the intended concentration. This was then orally administered to the animals at a volume of 1 mL/kg. The period of 1, 3 and 5 hours after the dosing was used as the measuring time after the administration of the solvent or a compound tested, and a duration of 15 minutes around each measuring time (45 to 75 minutes, 165 to 195 minutes and 285 to 315 minutes after the administration of the compound) was used as the measuring period.
Micturition contraction was used as an index of the voiding function and pre-micturition contraction was measure as an index of detrusor instability. […]

[3] = test system: spinal cord-injured rats; assay: Inhibitory activity on detrusor hyperreflexia (cystometry test); assay type: in vivo, rat; details: average ± standard error
Procedure: The experiment was carried out according to the method of Cheng, et al. [Brain Res., Vol. 678, pp. 40-48 (1995)].
Female SD rats of 8 to 10 weeks of age (supplied by Japan SLC) were used in the test. Five to seven animals of these rats were put in each metal cage and reared by allowing them to freely take commercially available chow and water, in an animal room at room temperature between 19 and 25° C. and humidity between 30 and 70% under illumination for 12 hours (from 7:00 a.m. to 7:00 p.m.) per day.
An operation of spinal cord injury was performed in the rats. Each animal was anesthetized with diethyl ether and the skin of the back side thoracic cord part was incised. A laminectomy at the 7th to 8th thoracic vertebrae level was performed. Then, the thoracic cord at the T7-T8 segments was macroscopically cut and a section of spinal cord (about 5 mm) was removed, and the wound cavity of the removed part was filled with oxidized regenerated cellulose for hemostasis. The incised part was sutured with a surgical silk. After the spinal cord injury operation, urine was expressed manually twice per day (at 8:00-9:00 and 18:00-19:00) for about 3 weeks until autonomic micturition developed. An antibiotic (ampicillin, Sigma. Chemical Co.) was intramuscularly administered to the animals at a dose of 150 mg/kg once to twice per day for about 2 weeks.
Four to five weeks after the spinal cord injury, the rats were subjected to bladder catheterization. Under diethyl ether anesthesia, the bladder was exposed by midline incision of the abdomen. […] The bladder catheter was fixed with a surgical silk ligature and indwelled. The other end of the catheter was exposed subcutaneously from the back of the neck, plugged and then fixed to the skin with a surgical thread.
Four to six days after the bladder catheterization, a cystometry test was performed. The rats were put in a Bollman cage (Natsume Seisakusho Co., Ltd.) and a three-way cock was connected to the bladder catheter, one end of the cock was connected to a pressure transducer (Nihon Kohden Corp.) and the other end was connected to a 50-mL syringe (Terumo Corp.) arranged to an infusion pump (Harvard Apparatus, Inc.) for physiological saline infusion. The intravesical pressure signal from the pressure transducer was amplified with a strain pressure amplifier (AP-601G, Nihon Kohden Corp.) connected thereto, and was recorded on a thermal array recorder (RTA-1200, Nihon Kohden Corp.) via a polygraph system (RMP-6008, Nihon Kohden Corp.) containing the above amplifier. Sixty to ninety minutes after the completion of the preparation for the measurement, a room temperature physiological saline was infused into the bladder at a flow rate of 10 mL/h for 30 minutes, the occurence of micturition contractions was confirmed. Thirty minutes later, the infusion of physiological saline was carried out again for 30 minutes, and the intravesical pressure was measured to be used as the pre-administration value. Each of Compounds 1 to 6 was suspended in a 0.5 w/v % aqueous solution of methylcellulose at a concentration of 1 mg/mL suspension. The suspension was further diluted with a 0.5 w/v % aqueous solution of methylcellulose to prepare a suspension or solution for the administration at the intended concentration, which was then orally administered to the animals at a volume of 1 mL/kg. The period of 1, 3 and 5 hours after the dosing was used as the measuring time after the administration of the solvent or a compound tested, and the intravesical infusion of a physiological saline was carried out during a duration of 15 minutes around each measuring time (i.e. from 45 to 75 minutes, from 165 to 195 minutes and from 285 to 315 minutes after the administration of the compound).
Micturition contraction was measured as an index of the voiding function and pre-micturition contraction was measured as an index of detrusor hyperreflexia. […]

## C[C@](O)(C(=O)Nc1cccc2c1C(=O)c1sccc1CS2(=O)=O)C(F)(F)F [Compound 1]
[1]
  minimum lethal dose (MLD): > 1000 mg/kg
[2]; 0.001 mg/kg p.o., after 1 hr.
  micturition contractions (relative value, before administration = 100): 99.3 ± 2.3%
  pre-micturition contractions (relative value, before administration = 100): 105.9 ± 7.8%
[2]; 0.001 mg/kg p.o., after 3 hrs.
  micturition contractions (relative value, before administration = 100): 101.5 ± 3.3%
  pre-micturition contractions (relative value, before administration = 100): 100.3 ± 10.0%
[2]; 0.001 mg/kg p.o., after 5 hrs.
  micturition contractions (relative value, before administration = 100): 98.7 ± 5.2%
  pre-micturition contractions (relative value, before administration = 100): 104.2 ± 10.2%
[2]; 0.01 mg/kg p.o., after 1 hr.
  micturition contractions (relative value, before administration = 100): 99.6 ± 1.2%
  pre-micturition contractions (relative value, before administration = 100): 59.5 ± 4.1 %
[2]; 0.01 mg/kg p.o., after 3 hrs.
  micturition contractions (relative value, before administration = 100): 92.6 ± 3.2%
  pre-micturition contractions (relative value, before administration = 100): 69.5 ± 4.4 %
[2]; 0.01 mg/kg p.o., after 5 hrs.
  micturition contractions (relative value, before administration = 100): 90.1 ± 4.3%
  pre-micturition contractions (relative value, before administration = 100): 67.8 ± 5.5 %
[2]; 0.1 mg/kg p.o., after 1 hr.
  micturition contractions (relative value, before administration = 100): 106.2 ± 9.2%
  pre-micturition contractions (relative value, before administration = 100): 55.8 ± 8.2 %
[2]; 0.1 mg/kg p.o., after 3 hrs.
  micturition contractions (relative value, before administration = 100): 105.2 ± 9.6%
  pre-micturition contractions (relative value, before administration = 100): 66.2 ± 4.7 %
[2]; 0.1 mg/kg p.o., after 5 hrs.
  micturition contractions (relative value, before administration = 100): 100.1 ± 8.6%
  pre-micturition contractions (relative value, before administration = 100): 69.2 ± 7.4 %
[3]; 0.001 mg/kg p.o., after 1 hr.
  micturition contractions (relative value, before administration = 100): 106.5 ± 11.3%
  pre-micturition contractions (relative value, before administration = 100): 83.5 ± 6.8%
[3]; 0.001 mg/kg p.o., after 3 hrs.
  micturition contractions (relative value, before administration = 100): 101.7 ± 9.5%
  pre-micturition contractions (relative value, before administration = 100): 95.4 ± 12.0%
[3]; 0.001 mg/kg p.o., after 5 hrs.
  micturition contractions (relative value, before administration = 100): 103.1 ± 6.5%
  pre-micturition contractions (relative value, before administration = 100): 105.5 ± 20.8%
[3]; 0.01 mg/kg p.o., after 1 hr.
  micturition contractions (relative value, before administration = 100): 114.4 ± 9.5%
  pre-micturition contractions (relative value, before administration = 100): 59.6 ± 8.1 %
[3]; 0.01 mg/kg p.o., after 3 hrs.
  micturition contractions (relative value, before administration = 100): 117.6 ± 13.9%
  pre-micturition contractions (relative value, before administration = 100): 51.2 ± 6.7 %
[3]; 0.01 mg/kg p.o., after 5 hrs.
  micturition contractions (relative value, before administration = 100): 117.6 ± 12.7%
  pre-micturition contractions (relative value, before administration = 100): 42.2 ± 7.2 %
[3]; 0.1 mg/kg p.o., after 1 hr.
  micturition contractions (relative value, before administration = 100): 109.3 ± 6.3%
  pre-micturition contractions (relative value, before administration = 100): 52.3 ± 9.1 %
[3]; 0.1 mg/kg p.o., after 3 hrs.
  micturition contractions (relative value, before administration = 100): 110.2 ± 5.4%
  pre-micturition contractions (relative value, before administration = 100): 33.3 ± 6.3 %
[3]; 0.1 mg/kg p.o., after 5 hrs.
  micturition contractions (relative value, before administration = 100): 112.4 ± 7.0%
  pre-micturition contractions (relative value, before administration = 100): 28.5 ± 6.2 %
